The record followed here is patent US9771353B2, “Kinase inhibitors based upon N-alkyl pyrazoles” (RESPIVERT LIMITED, priority 2013, dated 2017).

Molecules are shown by their SMILES. Like-named read-outs stand apart in the source and are kept apart here.

In one test the target is Syk (Homo sapiens (Human), UniProt P43405). Description: Syk enzyme inhibition (FRET, Z-LYTE). It counts as biochemical. As for the experimental part: The enzyme inhibitory activities of compounds disclosed herein are determined by FRET using synthetic peptides labelled with both donor and acceptor fluorophores (Z-LYTE, Invitrogen Ltd., Paisley, UK).
The inhibitory activities of compounds of the invention against c-Src and Syk enzymes (Invitrogen), are evaluated in a similar fashion to that described hereinabove. The relevant enzyme (3000 ng/mL or 2000 ng/mL respectively, 2.5 μL) is incubated with the test compound (either 4 μg/mL, 0.4 μg/mL, 0.04 μg/mL, or 0.004 μg/mL, 2.5 μL each) for 2 hr at RT. The FRET peptides (8 μM, 2.5 μL), and appropriate ATP solutions (2.5 μL, 800 μM for c-Src, and 60 μM ATP for Syk) are then added to the enzymes/compound mixtures and incubated for 1 hr. Development reagent (protease, 5 μL) is added for 1 hr prior to detection in a fluorescence microplate reader (Varioskan® Flash, ThermoFisher Scientific).
In all cases, the site-specific protease cleaves non-phosphorylated peptide only and eliminates the FRET signal. Phosphorylation levels of each reaction are calculated using the ratio of coumarin emission (donor) over fluorescein emission (acceptor), for which high ratios indicate high phosphorylation and low ratios indicate low phosphorylation levels.

The subject of test [1] is d-U937 cells. As to the kind of experiment: LPS-induced TNFα/IL-8 release in d-U937 cells, assay (a). It counts as cell-based. The conditions noted are these: Homo sapiens, LPS-stimulated dU937 cells. As for the experimental part:
U937 cells, a human monocytic cell line, are differentiated to macrophage-type cells by incubation with phorbol myristate acetate (PMA; 100 ng/mL) for 48 to 72 hr. Cells are pre-incubated with final concentrations of test compound for 2 hr and are then stimulated with 0.1 μg/mL of LPS (from E. Coli: O111:B4, Sigma) for 4 hr. The supernatant is collected for determination of TNFα and IL-8 concentrations by sandwich ELISA (Duo-set, R&D systems). The inhibition of TNFα production is calculated as a percentage of that achieved by 10 μg/mL of BIRB796 at each concentration of test compound by comparison against vehicle control. The relative 50% effective concentration (REC50) is determined from the resultant concentration-response curve. The inhibition of IL-8 production is calculated at each concentration of test compound by comparison with vehicle control.

Test [2] concerns PBMCs. Description: LPS-induced TNFα/IL-8 release in PBMC cells, assay (b). The note with it: Homo sapiens, LPS-stimulated PBMCs, read-out: IC50 Values for Inhibition of Cytokine Release, PBMCs IL-8. It counts as cell-based. The method, then:
Peripheral blood mononuclear cells (PBMCs) from healthy subjects are separated from whole blood using a density gradient (Lymphoprep, Axis-Shield Healthcare). The PBMCs are seeded in 96 well plates and treated with compounds at the desired concentration for 2 hours before addition of 1 ng/mL LPS (Escherichia Coli 0111:B4 from Sigma Aldrich) for 24 hours under normal tissue culture conditions (37° C., 5% CO2). The supernatant is harvested for determination of IL-8 and TNFα concentrations by sandwich ELISA (Duo-set, R&D systems) and read on the fluorescence microplate reader (Varioskan® Flash, ThermoFisher Scientific).

Test [3] has as its system PBMCs. Description: IL-2 and IFN gamma release in CD3/CD28 stimulated PBMC cells, assay (c). The note with it: Homo sapiens. It counts as cell-based. As for the experimental part:
PBMCs from healthy subjects are separated from whole blood using a density gradient (Lymphoprep, Axis-Shield Healthcare). Cells are added to a 96 well plate pre-coated with a mixture of CD3/CD28 monoclonal antibodies (0.3 μg/mL eBioscience and 3 μg/mL BD Pharmingen respectively). Compound at the desired concentration is then added to the wells and the plate left for 3 days under normal tissue culture conditions. Supernatants are harvested and IL-2 and IFN gamma release determined by Sandwich ELISA (Duo-set, R&D System). The IC50 is determined from the dose response curve.

Test [4] has as its system d-U937 cells. Description: Accumulation of β catenin in d-U937 cells, assay (m). It counts as cell-based, human. The method, then:
U937 cells, a human monocytic cell line, are differentiated into macrophage-type cells by incubation with PMA; (100 ng/mL) for between 48 to 72 hr. The cells are then incubated with either final concentrations of test compound or vehicle for 18 hr. The induction of β-catenin by the test compounds is stopped by replacing the media with 4% formaldehyde solution. Endogenous peroxide activity is neutralised by incubating with quenching buffer (100 μL, 0.1% sodium azide, 1% H2O2 in PBS with 0.05% Tween-20) for 20 min. The cells are washed with washing buffer (200 μL; PBS containing 0.05% Tween-20) and incubated with blocking solution (200 μL; 5% milk in PBS) for 1 hr, re-washed with washing buffer (200 μL) and then incubated overnight with anti-β-catenin antibody solution (50 μL) in 1% BSA/PBS (BD, Oxford, UK).
After washing with washing buffer (3×200 μL; PBS containing 0.05% Tween-20), cells are incubated with an HRP-conjugated secondary antibody solution (100 μL) in 1% BSA/PBS (Dako, Cambridge, UK) and the resultant signal is determined colourimetrically (OD: 450 nm with a reference wavelength of 655 nm) using TMB substrate (50 μL; R&D Systems, Abingdon, UK). This reaction is stopped by addition of 1N H2SO4 solution (50 μL). Cells are then washed with washing buffer and 2% crystal violet solution (50 μL) is applied for 30 min. After washing with washing buffer (3×200 μL), 1% SDS (100 μL) is added to each well and the plates are shaken lightly for 1 hr prior to measuring the absorbance at 595 nm (Varioskan® Flash, Thermo-Fisher Scientific).
The measured OD450-655 readings are corrected for cell number by dividing the OD450-655 by the OD595 readings. The percentage induction for each well is calculated relative to vehicle, and the ratio of induction normalised in comparison with the induction produced by a standard control comprising of N-(4-(4-(3-(3-tert-butyl-1-p-tolyl-1H-pyrazol-5-yl)ureido)naphthalen-1-yloxy)pyridin-2-yl)-2-methoxyacetamide (1 μg/mL) which is defined as 100%.

The mark [5] stands for this setting: IL-8, read-out: IC50 Values for Inhibition of Cytokine Release, dU937 cells IL-8.
The mark [6] stands for this setting: TNFα (method describes REC50 relative to BIRB796), read-out: IC50 Values for Inhibition of Cytokine Release, dU937 cells TNFα.
The mark [7] stands for this setting: IL-2, read-out: IC50 Values for Inhibition of Cytokine Release, PBMCs IL-2.
Setting [8] is: 1 μg/mL test compound, normalised to reference N-(4-(4-(3-(3-tert-butyl-1-p-tolyl-1H-pyrazol-5-yl)ureido)naphthalen-1-yloxy)pyridin-2-yl)-2-methoxyacetamide.
Setting [9] is: 5 μg/mL test compound, normalised to the same reference compound.

A word on the IC50: it is the concentration that inhibits the measured activity by half. Consider `C#Cc1cc(Nc2nccc(Oc3ccc(NC(=O)Nc4cc(C(C)(C)C)nn4C)c4ccccc34)n2)cc(C(=O)NCCN2CCOCC2)c1` [Example 1, 3-((4-((4-(3-(3-(tert-Butyl)-1-methyl-1H-pyrazol-5-yl)ureido)naphthalen-1-yl)oxy)pyrimidin-2-yl)amino)-5-ethynyl-N-(2-morpholinoethyl)benzamide], for which the IC50 was determined as 149 nM at Syk; 6.7 nM in the test with d-U937 cells [1] (setting [5]); 2.4 nM in the test with d-U937 cells [1] (setting [6]); 1.6 nM in the test on PBMCs [2]; 17.5 nM in the test on PBMCs [3] (setting [7]). Besides, the “% β-catenin induction” value is given as −1.5% in the test with d-U937 cells [4] (setting [8]) and 10.5% with d-U937 cells [4] (setting [9]).

In the case of `COCCOCCOCCOc1cc(Nc2nccc(Oc3ccc(NC(=O)Nc4cc(C(C)(C)C)nn4C)c4ccccc34)n2)cc(OC)c1` [Example 2, 1-(3-(tert-Butyl)-1-methyl-1H-pyrazol-5-yl)-3-(4-((2-((3-methoxy-5-(2-(2-(2-methoxy-ethoxy)ethoxy)ethoxy)phenyl)amino)pyrimidin-4-yl)oxy)naphthalen-1-yl)urea], the IC50 against Syk stood at 543 nM; with d-U937 cells [1] (setting [5]) it was 1 nM; in the test on d-U937 cells [1] (setting [6]), 2 nM; in the test on PBMCs [2], 3.6 nM; in the test with PBMCs [3] (IFNγ, read-out: IC50 Values for Inhibition of Cytokine Release, PBMCs IFNγ), 6.2 nM; with PBMCs [3] (setting [7]), 11.3 nM. Further, the “% β-catenin induction” value in the test with d-U937 cells [4] (setting [8]) is −2%; with d-U937 cells [4] (setting [9]), 6.5%; in the test on d-U937 cells [4] (10 μg/mL test compound, normalised to the same reference compound), 4.5%.
